Where two headings read alike, the source gives them in different places.
Tests used:
BGC-823 = experiment: MTT cytotoxicity assay, BGC-823; type: cell-based; conditions: mean ± SD (n = 3), read-out: Cytotoxic activity (IC50) BGC-823
Procedure: (§1) HeLa, BGC823, A-549, MCF-7 and HT-7702 cell lines were obtained from the ATCC. […] Tumor cells (3500–13,000) were seeded into 96-well microtest plates in 100 μL of culture medium per well, incubated for 48 h in the presence or absence of test compounds (8 different concentrations ranging from 100 to 0.01 μg/mL). For quantitative estimation of cytotoxicity, the (MTT) method was used, essentially performed as described previously. Briefly, cells were washed twice with PBS, fixed for 15 min in 1% glutaraldehyde solution, rinsed twice in PBS, and stained in 0.5% MTT solution for 4 h at 37 °C. […] The initial seeding densities varied among the cell lines to ensure a final absorbance reading in control (untreated) cultures within the range of 0.6–0.8 A492 units. Drug exposure was carried out for 2 days, and the IC50 value, i.e., the drug concentration that decreased the absorbance by 50%, was extrapolated from dose-response data. Each test was performed in triplicate, and the absorbance readings between the triplicates varied by no more than 10%.

A549 = experiment: MTT cytotoxicity assay, A549; type: cell-based; conditions: mean ± SD (n = 3), read-out: Cytotoxic activity (IC50) A549
Procedure: as §1

MCF-7 = experiment: MTT cytotoxicity assay, MCF-7; type: cell-based; conditions: mean ± SD (n = 3), read-out: Cytotoxic activity (IC50) MCF-7
Procedure: as §1

HeLa cells [1] = experiment: Cell cycle analysis by flow cytometry (PI); type: cell-based; conditions: for Effect on HeLa cell cycle: 0.1, 1.0, 5.0 μM, 6, 12, 24, 48 h; for Ratio of cell cycle arrest (of total cells) / Percentage of cell cycle arrest (right peak of histogram) / Total cell cycle arrest percentage (right peak of histogram): HeLa; for Ratio of cell cycle arrest (of total cells): 0.1 μM, 6, 12, 24 and 48 h; for Percentage of cell cycle arrest (right peak of histogram) / Total cell cycle arrest percentage (right peak of histogram): 5.0 μM; for Percentage of cell cycle arrest (right peak of histogram): 12 h; for Total cell cycle arrest percentage (right peak of histogram): 48 h
Procedure: The HeLa cell line was used for cell cycle analysis. Progression through the cell cycle was assessed by flow cytometry DNA determination with Propidium Iodide (PI). […] Flow cytometric analysis was performed using a BD accur C6 flow cytometer. Analysis was with Mod FIT software.

[2] = test system: microtubules in HeLa cells; experiment: Immunofluorescence of cellular microtubules; type: cell-based; conditions: for Cellular depolymerization of microtubules: 12 and 24 h, compared with negative control 0.1% DMSO; for Appearance of microtubules after treatment: immunofluorescence
Procedure: Cells (20000 per mL) were plated a onto 6-well tissue culture plates containing 12 mm round coverslips, cultured overnight, and then treated with different drugs at […] concentrations or drug vehicle (0.1% DMSO) for 12 h and 24 h. Attached cells were permeabilized. Cytoskeletons were incubated with α-tubulin, washed twice, and incubated with FITC goat anti-mouse immunoglobulins. The coverslips were washed, and 1 μg/mL DAPI to stain chromatin was added. The mixture was incubated for 30 min. After the samples were washed, they were examined and photographed using an Olympus epifluorescence microscope. The images were recorded with a Perkin Elmer camera.

HL-7702 = experiment: MTT cytotoxicity assay, normal hepatic cell line HL-7702; type: cell-based; conditions: human normal hepatic immortal cell line, drug exposure 48 h, mean ± SD (n = 3), read-out: Cytotoxic activity (IC50) HL-7702
Procedure: as §1

HeLa = experiment: MTT cytotoxicity assay, HeLa; type: cell-based; conditions: drug exposure 48 h, mean ± SD (n = 3), read-out: Cytotoxic activity (IC50) HeLa
Procedure: as §1

[3] = test system: BimEL, ATR, caspase 3, caspase 8, caspase 9, PARP in HeLa cells; experiment: Western blot analysis of apoptosis proteins; type: cell-based; conditions: 24 h treatment; for Extent of compound-induced BimEL / Extent of compound-induced PARP / Extent of compound-induced caspase 3 / Extent of compound-induced caspase 9 / Extent of compound-induced ATR: 5 μM, untreated control 0%, etoposide-induced activation 100%
Procedure: For electrophoresis, the proteins were separated by sodium dodecyl sulfate–polyacrylamide gel electro-phoresis (SDS–PAGE). The proteins were then transferred to a nitrocellulose membrane, which was blocked with 5% skimmed milk in phosphate buffered saline Tween-20 (PBST). A specific primary antibody was added to bind the target proteins for either 1 h at room temperature or overnight at 4 °C. A horseradish peroxidase (HRP) conjugated secondary antibody was added to the membrane after the primary antibody was washed off. All signals were detected after the HRP was activated by enhanced chemiluminescence. The band intensities of Western results were quantitated with the Image Quant program (Molecular Dynamics Inc.), analyzed and graphed. The untreated controls and the etoposideinduced activation of signaling molecules were taken as 0% and 100%, respectively. Statistic analysis was performed with the uni-polar, paired Student t-test. Data were considered significant when P value was less than 0.05.

tubulin = experiment: Tubulin assembly centrifugation assay in vitro; type: biochemical; conditions: for Inhibition of microtubule polymerization compared with colchicine: colchicine as positive control
Procedure: Ligands were dissolved in DMSO at 20 mM and kept at −80 °C. Work solutions were done in DMSO and kept at −20 °C. The 50% inhibitory ligand concentration of tubulin assembly was determined with a centrifugation assay. Tubulin was equilibrated prior to use in 3.4 M glycerol, 1 mM EGTA, 0.1 mM GTP, pH 7.0, buffer through a 25 cm × 0.9 cm Sephadex G-25 column. Aggregates were removed by a centrifugation at 90000 g × 10 min in a TLA 120 rotor at 4 °C in an Optima TLX centrifuge. Tubulin concentration was determined as described by Andreu^42. Tubulin was kept at 4 °C, and 0.9 mM GTP and 6 mM MgCl2 were added to the sample. The solution was distributed in 200 μL polycarbonate tubes for the TL100 rotor. Growing concentrations of the ligands ranging from 0 to 25 μM were added to the samples (DMSO content of the samples, 2.5%), which were incubated for 30 min at 37 °C. Microtubules were separated from unassembled tubulin by a centrifugation at 90000 g × 10 min in a TLA100 rotor at 37 °C in an Optima TLX centrifuge. The supernatant containing unassembled tubulin was carefully collected and the microtubule pellet resuspended in 10 mM sodium phosphate buffer, pH 7.0, containing 1% SDS. Both supernatants and pellets were diluted 1:5 in the same buffer, and tubulin concentrations were measured fluorometrically (λexc = 280; λems = 323) using tubulin standards calibrated spectrophotometrically. The 50% inhibitory ligand concentration of tubulin assembly was determined with a centrifugation assay that measured the decrease in the concentrations of microtubules assembled in the presence of different concentrations of the compound.

HeLa cells [4] = experiment: Annexin V-FITC/PI apoptosis assay; conditions: 0.1 μM, 6, 12, 24 and 48 h
Procedure: The HeLa cell line was used for cell apoptosis. Cells (20000 per mL) were incubated with several concentrations of the compounds or drugs for 6–48 h, and incubated in DMEM medium supplemented with 12% fetal calf serum (FCS), 2 mM L -glutamine, and 100 mg/L penicillin G and 100 mg/L streptomycin at 37 °C and 5% CO2. The cells were washed with PBS twice, centrifuged at 206 g for 5 min, and 5–10[5] cells were collected. Binding buffer suspension (500 μL) was added to the cells, and then 5 μL of the FITC-Annexin V mix was added. Next, 10 μL of the PI mix was added, and the suspension was mixed and kept at room temperature for 30 min in the dark. Analysis was with a BD accur C6 flow cytometer.

[5] = MTT cytotoxicity assay, normal hepatic cell line HL-7702; type: cell-based; conditions: HL-7702 normal hepatic cells, human normal hepatic immortal cell line, drug exposure 48 h, mean ± SD (n = 3), read-out: Cytotoxic activity (IC50) HL-7702
Procedure: as §1

topoisomerase II = experiment: kDNA decatenation assay; type: biochemical; conditions: 100 μM
Procedure: The decatenation of kDNA was assayed according to TopoGen protocol in order to determine topoisomerase II activity. The substrate kDNA (200 ng) and 100 μM drugs were combined in assay buffer and incubated for 10 min on ice. Next, 1 U of topoisomerase II was added and the reaction was allowed to proceed for 15 min at 37 °C. The reaction was quenched via the addition of loading buffer (1% sarkosyl, 0.025% bromophenol blue, and 5% glycerol) and was then analyzed by electrophoresis on a 1% agarose gel in TBE buffer for 30 min at 130 V. The gel was stained with SYBR Green I (Molecular Probes) for 30 min and was visualized under UV illumination and photographed on a Tanon Imager.

[6] = Homo sapiens, BGC-823, drug exposure 48 h
[7] = Homo sapiens, A549, drug exposure 48 h
[8] = Homo sapiens, MCF7, drug exposure 48 h

SMILES | Effect on HeLa cell cycle (HeLa cells [1]) | Ratio of cell cycle arrest (of total cells) (HeLa cells [1]) | Total cell cycle arrest percentage (right peak of histogram) (HeLa cells [1]) | Cellular depolymerization of microtubules [2] | Ratio of apoptotic Hela cells (of total cells) (HeLa cells [4]) | IC50 (BGC-823; [6]) | IC50 (A549; [7]) | IC50 (MCF-7; [8]) | IC50 at 48 h [5] | IC50 (HeLa; Homo sapiens, HeLa, 48 h) | Extent of compound-induced PARP [3] | Extent of compound-induced caspase 3 [3] | Extent of compound-induced caspase 9 [3] | also measured
COc1ccc(NC2c3cc4c(cc3C(c3cc(OC)c(OC)c(OC)c3)C3C(=O)OCC23)OCO4)cc1F (stereo not drawn) [Compound 19, 4β-NH-(3-fluoro-4-methoxyaniline)-4-deoxy-podophyllotoxin] | arrested at the G2/M phase | less than 10% | 96.2% | able to cause cellular depolymerization of microtubules | less than 15% | – | – | – | – | – | – | – | – | IC50 (BGC-823; drug exposure 48 h): 1.61 ± 0.11 µM; IC50 (A549; drug exposure 48 h): 1.76 ± 0.07 µM; IC50 (MCF-7; drug exposure 48 h): 2.01 ± 0.21 µM; Percentage of cell cycle arrest (right peak of histogram) (HeLa cells [1]): 83.0%; Appearance of microtubules after treatment [2]: greatly disrupted and disappeared; IC50 (HL-7702): 55.4 ± 0.64 µM; IC50 (HeLa): 0.72 ± 0.08 µM; BimEL level (pro-apoptotic protein) [3]: significantly increased; GI50 (tubulin; centrifugation assay, ligand 0 to 25 μM, 30 min at 37 °C, read-out: GI50, inhibition of microtubule polymerization (tubulin assembly)): < 1 µM; Inhibition of microtubule polymerization compared with colchicine (tubulin): effects higher than colchicine
COc1ccc(N[C@@H]2c3cc4c(cc3[C@@H](c3cc(OC)c(O)c(OC)c3)[C@H]3C(=O)OC[C@@H]32)OCO4)cc1 [Compound 12′] | arrested at the G2/M phase | less than 10% | – | – | less than 15% | 36 ± 3.21 µM | 22.3 ± 1.21 µM | 18.8 ± 0.24 µM | 28.6 ± 2.35 µM | 24.46 ± 0.16 µM | – | – | – | –
COc1ccc(N[C@@H]2c3cc4c(cc3[C@@H](c3cc(OC)c(OC)c(OC)c3)[C@H]3C(=O)OC[C@@H]32)OCO4)cc1Br [Compound 17, 4β-NH-(3-bromide-4-methoxyaniline)-4-deoxy-podophyllotoxin] | arrested at the G2/M phase | less than 10% | 86.5% | able to cause cellular depolymerization of microtubules | less than 15% | 7.91 ± 0.59 µM | 9.08 ± 0.26 µM | 10.1 ± 0.18 µM | 62.4 ± 1.96 µM | – | 27% | 37% | 0% | Extent of compound-induced BimEL [3]: 15%
COc1ccc(N[C@@H]2c3cc4c(cc3[C@@H](c3cc(OC)c(O)c(OC)c3)[C@H]3C(=O)OC[C@@H]32)OCO4)cc1Br [Compound 17′, 4β-NH-(3-bromide-4-methoxyaniline)-4-deoxy-4′-demethylepipodophyllotoxin] | arrested at the G2/M phase | – | – | – | – | 5.63 ± 0.12 µM | – | 6.51 ± 0.37 µM | 91.8 ± 1.57 µM | – | 52% | 43% | 34% | Inhibition of the catalytic activity of Topo II (kDNA decatenation) (topoisomerase II): completely inhibited; Extent of compound-induced ATR [3]: 26%
COc1ccc(N[C@@H]2c3cc4c(cc3[C@@H](c3cc(OC)c(O)c(OC)c3)[C@H]3C(=O)OC[C@@H]32)OCO4)cc1Cl [Compound 18′, 4β-NH-(3-chloride-4-methoxyaniline)-4-deoxy-4′-demethylepipodophyllotoxin] | arrested at the G2/M phase | less than 10% | – | – | less than 15% | 1.77 ± 0.23 µM | 3.04 ± 0.23 µM | 3.18 ± 0.51 µM | 127.4 ± 0.46 µM | 1.97 ± 0.16 µM | 54% | 69% | 35% | Extent of compound-induced ATR [3]: 46%
COc1ccc(N[C@@H]2c3cc4c(cc3[C@@H](c3cc(OC)c(O)c(OC)c3)[C@H]3C(=O)OC[C@@H]32)OCO4)cc1F [Compound 19′, 4β-NH-(3-fluoro-4-methoxyaniline)-4-deoxy-4′-demethylepipodophyllotoxin] | arrested at the G2/M phase | less than 10% | – | – | less than 15% | 0.4 ± 0.07 µM | 1.2 ± 0.25 µM | 1.32 ± 0.24 µM | 188 ± 7.33 µM | 0.56 ± 0.12 µM | – | – | – | Percentage of cell cycle arrest (right peak of histogram) (HeLa cells [1]): 84.9%
COc1ccc(N[C@@H]2c3cc4c(cc3[C@@H](c3cc(OC)c(OC)c(OC)c3)[C@H]3C(=O)OC[C@@H]32)OCO4)cc1Cl [Compound 18, 4β-NH-(3-chloride-4-methoxyaniline)-4-deoxy-podophyllotoxin] | arrested at the G2/M phase | less than 10% | 94.4% | able to cause cellular depolymerization of microtubules | less than 15% | 3.52 ± 0.23 µM | 3.72 ± 0.29 µM | 3.54 ± 0.14 µM | 79 ± 2.33 µM | – | 84% | 56% | 50% | Appearance of microtubules after treatment [2]: greatly disrupted and disappeared; Extent of compound-induced BimEL [3]: 58%; BimEL level (pro-apoptotic protein) [3]: significantly increased; Inhibition of microtubule polymerization compared with colchicine (tubulin): effects higher than colchicine
